Assay results reported in patent publication US10420770B2, “Compositions and methods for treating dementia” (EIP Pharma, LLC, priority 2016, dated 2019).

What was measured:
Format in all cases: in vivo, human
[1] = system: patients with mild cognitive impairment (MCI) due to Alzheimer's disease (AD) or with mild AD; experiment: MMSE, 6-week study (Example 2); settings: baseline vs day 40; no statistical analyses
Description: (§1) The MMSE is a questionnaire used extensively in clinical and research settings to measure mental function. It is commonly used to screen for dementia, and to assess the severity and progression of dementia. The MMSE is an effective way to document a human subject's response to treatment. The test examines functions including registration, attention and calculation, recall, language, ability to follow simple commands and orientation.
Subjects were men and women between 60-85 years old, having a confirmed diagnosis of MCI due to AD or mild AD (consistent with National Institute of Aging and Alzheimer's Association research diagnostic guidelines) and a Mini-Mental State Examination (MMSE) score greater than 20. Inclusion criteria included gradual and progressive decline in memory function reported by patients or informants over more than 6 months; an amnestic presentation on formal neuropsychological testing that was characterized by a pattern of rapid forgetting, as determined by the PI/subinvestigator; evidence of functional decline as evidenced by a CDR sum of box score of ≥0.5; and MMSE score of 17 to 30, inclusive. […] A total of 9 subjects were enrolled and all were included in safety analysis; 8 subjects completed 6 weeks treatment and were included in pharmacodynamics analysis. […]

[2] = system: patients with mild cognitive impairment (MCI) due to Alzheimer's disease (AD) or with mild AD; experiment: Wechsler Memory Scale (WMS) immediate and delayed recall, 12-week study (Example 1); settings: for patients with improvement from baseline, WMS delayed recall composite score / patients with improvement from baseline, WMS immediate recall composite score: day 84
Protocol: In this study, episodic memory was evaluated using the Dutch version of the WMS scale utilizing both verbal and visual information: Logical Memory (LM I & II) test, in which subject is read a story; Verbal-Paired Associates (VPA I & II), in which subject is given pairs of words and asked remember which words go together; and Visual Reproduction (VR I & II)), in which subject is given drawings of specific shapes. Subjects were then asked to recall the information within each test both in an immediate (WMS-Immediate Recall composite) and delayed (WMS-Delayed Recall composite) basis. The total score of the WMS-Immediate Recall component could range from 0 to 136 (0-53 for LMI; 0-40 for VPA I, and 0-43 VR I) and for the WMS-Delayed Recall from 0 to 92 (0-39 for LM II; 0-10 for VPA II, and 0-43 VR II).
Further analysis included Wechsler Memory Scale (WMS) Analyses. The WMS includes three subcategories: immediate recall, delayed recall, and symbol span, each with distinct assessments. Results can be analyzed as two distinct composites scores or as an overall composite score. This evaluation included the overall (score range: 0 to 401), immediate recall (score range: 0 to 136), and delayed recall (score range: 0 to 92) composite scores; the latter two are considered measures of episodic memory. In addition, the Symbol Span sub-component of WMS was analyzed separately (score range: 0 to 50). In all cases, higher scores reflect better cognitive performance.

[3] = system: patients with mild cognitive impairment (MCI) due to Alzheimer's disease (AD) or with mild AD; experiment: Hopkins Verbal Learning Test-Revised (HVLT-R), 6-week study (Example 2); settings: for HVLT-R Delayed Recall change from averaged baseline, Maximum / HVLT-R Delayed Recall change from averaged baseline, Median / HVLT-R Delayed Recall change from averaged baseline, Minimum / HVLT-R RDI change from averaged baseline, Maximum / HVLT-R RDI change from averaged baseline, Median / HVLT-R RDI change from averaged baseline, Minimum / HVLT-R Retention change from averaged baseline, Maximum / HVLT-R Retention change from averaged baseline, Median / HVLT-R Retention change from averaged baseline, Minimum / HVLT-R Total Recall change from averaged baseline, Maximum / HVLT-R Total Recall change from averaged baseline, Median / HVLT-R Total Recall change from averaged baseline, Minimum: n=8; for HVLT-R Delayed Recall change from averaged baseline, Arithmetic Mean / HVLT-R Retention change from averaged baseline, Arithmetic Mean / HVLT-R Total Recall change from averaged baseline, Arithmetic Mean: overall pharmacodynamic population n=8
Protocol: The Hopkins Verbal Learning Test-Revised (HVLT-R) was utilized to assess episodic memory. In this test, 12 specific words from a list were provided verbally, and the subject was asked to recall as many words as possible. Two scores are calculated: (i) Total (Immediate) Recall Score (range: 0-36): combined score of three consecutive trials immediately following provision of words and (ii) Delayed Recall Score (range: 0-12): Number of words recalled when subject was asked 20 to 25 minutes after initial trials to recall as many of the words originally provided. A strength of the HVLT-R is that six different validated version exist that each incorporate a different set of words. Due to the use of these different versions during the course of a clinical study, there is essentially no practice effect with repeated administration (Benedict, R. H. B. et al, “Hopkins Verbal Learning Test-Revised: Normative Data and Analysis of Inter-Form and Test-Retest Reliability” The Clinical Neuropsychologist, 12(1): 43-55 (1998)).

[4] = system: patients with mild cognitive impairment (MCI) due to Alzheimer's disease (AD) or with mild AD; experiment: Mini-Mental State Examination (MMSE), 12-week study (Example 1); settings: for subjects with an increase from screening of at least 1 in MMSE score: Day 84 (Visit 7)
Description: as §1
Investigators and patients were blind to the dosage strength. […] Patients were instructed to take doses within 30 minutes following a meal or snack, with each dose taken approximately 12 hours apart at the same times each day throughout the study.

[5] = Population pharmacokinetic analyses (Example 1 and Example 2 combined); settings: population PK
Protocol: Sixteen subjects completed the full 12 weeks of treatment and all were included in safety analyses. […] In the PK analysis, due to the sparse sampling collection design, the time period from 0 to 24 hours post-dose was divided into 4 blocks in order to show the distribution of concentrations over time. […] Average blood concentration of about 8 ng/mL at the 40 mg dose level was observed. This is higher than the 5 ng/mL.

[6] = Example 1 study (N = 15), Wechsler Memory Scale
[7] = Example 2 study (N = 8), HLVT-R

O=c1ncn2nc(Sc3ccc(F)cc3F)ccc2c1-c1c(Cl)cccc1Cl [VX-745]
MMSE individual subject scores [1]: overall trends are encouraging | patients with improvement from baseline, WMS delayed recall composite score ([2]; 40 mg group): 8 of 8 | patients with improvement from baseline, WMS immediate recall composite score ([2]; 40 mg group): 7 of 8 | patients with improvement from baseline, WMS delayed recall composite score ([2]; 125 mg group): 6 of 7 | patients with improvement from baseline, WMS immediate recall composite score ([2]; 125 mg group): 6 of 7 | change in all subcomponents of WMS episodic memory composites ([2]; Day 84): statistically significant (P<0.05) increases | Mean WMS delayed recall composite score ([2]; Day 84, combined doses, baseline 13.2 (±2.3), p<0.001): 22.1 (±4.1) | Mean WMS immediate recall composite score ([2]; Day 84, n=15 combined doses, baseline 48.4 (±3.8), p=0.005): 58.4 (±4.3) | Calculated within-subject treatment effect size (Cohen's d), Delayed Recall [2, 6]: .69 | Calculated within-subject treatment effect size (Cohen's d), Immediate Recall [2, 6]: .59 | WMS immediate and delayed recall, cognitive analysis ([2]; nearly all patients, regardless of effect on amyloid plaque): dose dependent improvement | HVLT-R Delayed Recall change from averaged baseline, Maximum ([3]; Day 14): 4 | HVLT-R Delayed Recall change from averaged baseline, Median ([3]; Day 14): 1.0 | HVLT-R Delayed Recall change from averaged baseline, Minimum ([3]; Day 14): −3 | HVLT-R RDI change from averaged baseline, Maximum ([3]; Day 14): 5 | HVLT-R RDI change from averaged baseline, Median ([3]; Day 14): −0.3 | HVLT-R RDI change from averaged baseline, Minimum ([3]; Day 14): −3 | HVLT-R Retention change from averaged baseline, Maximum ([3]; Day 14): 35% | HVLT-R Retention change from averaged baseline, Median ([3]; Day 14): 6.3% | HVLT-R Retention change from averaged baseline, Minimum ([3]; Day 14): −37% | HVLT-R Total Recall change from averaged baseline, Maximum ([3]; Day 14): 6 | HVLT-R Total Recall change from averaged baseline, Median ([3]; Day 14): 0.0 | HVLT-R Total Recall change from averaged baseline, Minimum ([3]; Day 14): −2 | HVLT-R Delayed Recall change from averaged baseline, Arithmetic Mean ([3]; Day 14): 0.8 | HVLT-R Retention change from averaged baseline, Arithmetic Mean ([3]; Day 14): 3.8% | HVLT-R Total Recall change from averaged baseline, Arithmetic Mean ([3]; Day 14): 0.6 | HVLT-R Delayed Recall change from averaged baseline, Maximum ([3]; Day 40): 7 | HVLT-R Delayed Recall change from averaged baseline, Median ([3]; Day 40): 1.0 | HVLT-R Delayed Recall change from averaged baseline, Minimum ([3]; Day 40): 0 | HVLT-R RDI change from averaged baseline, Maximum ([3]; Day 40): 6 | HVLT-R RDI change from averaged baseline, Median ([3]; Day 40): 1.3 | HVLT-R RDI change from averaged baseline, Minimum ([3]; Day 40): −11 | HVLT-R Retention change from averaged baseline, Maximum ([3]; Day 40): 71% | HVLT-R Retention change from averaged baseline, Median ([3]; Day 40): 6.5% | HVLT-R Retention change from averaged baseline, Minimum ([3]; Day 40): −14% | HVLT-R Total Recall change from averaged baseline, Maximum ([3]; Day 40): 10 | HVLT-R Total Recall change from averaged baseline, Median ([3]; Day 40): 4.5 | HVLT-R Total Recall change from averaged baseline, Minimum ([3]; Day 40): −3 | HVLT-R Delayed Recall change from averaged baseline, Arithmetic Mean ([3]; Day 40): 2.1 | HVLT-R Retention change from averaged baseline, Arithmetic Mean ([3]; Day 40): 15.3% | HVLT-R Total Recall change from averaged baseline, Arithmetic Mean ([3]; Day 40): 3.5 | Calculated within-subject treatment effect size (Cohen's d), Delayed Recall [3, 7]: .86 | Calculated within-subject treatment effect size (Cohen's d), Immediate Recall [3, 7]: .69 | Median increase in HVLT-R Total Recall score ([3]; during 6-week treatment): 4.5 (range: −2.5 to +9.5) | HVLT-R Mean Total Recall score ([3]; week 6, Baseline 19.1 (±1.5), p=0.015): 22.6 (±2.1) | HVLT-R Delayed Recall score ([3]; week 6, baseline 5.4 (±0.6), P=0.028): 7.5 (±1.1) | subjects with an increase from screening of at least 1 in MMSE score ([4]; 40 mg group): approximately 50% | patients with greater than a 3-point improvement in MMSE score over baseline ([4]; 40 mg group, FIG. 2): two of four | subjects with an increase from screening of at least 1 in MMSE score ([4]; 125 mg group): ~33% | median 12-hour exposure ([5]; 40 mg dose level): 78 ng·h/mL | median 12-hour exposure ([5]; 125 mg dose level): 116 ng·h/mL | half-life ([5]; human, plasma, oral, Examples 1 and 2 combined, read-out: terminal half-life (converted)): ~16 h
